The text below walks through data of paper PMC5218480 (PLoS ONE, 2017).

The subject of the experiment is MV-4-11 cells. Description: Gene expression microarray analysis (Affymetrix PrimeView) and GSEA. It counts as cell-based, human. The arrangement: RFU PODN (11730768_x_at) / Fold change /veh PODN (11730768_x_at) / RFU LINC00158 (11744669_a_at) / Fold change /veh LINC00158 (11744669_a_at) / RFU DUSP10 (11751237_a_at) / Fold change /veh DUSP10 (11751237_a_at) / RFU ID3 (11757404_x_at) / Fold change /veh ID3 (11757404_x_at) / RFU PLEKHG5 (11737974_s_at) / Fold change /veh PLEKHG5 (11737974_s_at) / RFU LRRC4B (11730491_at) / Fold change /veh LRRC4B (11730491_at) / RFU GIMAP4 (11747438_a_at) / Fold change /veh GIMAP4 (11747438_a_at) / RFU KRT8 (11758183_x_at) / Fold change /veh KRT8 (11758183_x_at) / RFU CNN1 (11734310_a_at) / Fold change /veh CNN1 (11734310_a_at) / RFU VPS37D (11726825_at) / Fold change /veh VPS37D (11726825_at) / RFU C10orf10 (11716522_x_at) / Fold change /veh C10orf10 (11716522_x_at) / RFU KIR2DL2 /// KIR2DL4 /// KIR2DL5A /// KIR2DL5B /// KIR2DS1 /// KIR2DS2 /// KIR2DS3 /// KIR2DS4 /// KIR3DL3 /// KIR3DL3 /// KIR3DS1 (11738374_at) / Fold change /veh KIR2DL2 /// KIR2DL4 /// KIR2DL5A /// KIR2DL5B /// KIR2DS1 /// KIR2DS2 /// KIR2DS3 /// KIR2DS4 /// KIR3DL3 /// KIR3DL3 /// KIR3DS1 (11738374_at) / RFU C1QL1 (11718748_at) / Fold change /veh C1QL1 (11718748_at) / RFU TMPRSS4 (11747572_a_at) / Fold change /veh TMPRSS4 (11747572_a_at) / RFU HAMP (11756126_x_at) / Fold change /veh HAMP (11756126_x_at) / RFU RNFT2 (11725882_a_at) / Fold change /veh RNFT2 (11725882_a_at) / RFU NR4A2 (11747474_a_at) / Fold change /veh NR4A2 (11747474_a_at) / RFU ABCC12 (11746883_a_at) / Fold change /veh ABCC12 (11746883_a_at) / RFU TMEM136 (11760407_x_at) / Fold change /veh TMEM136 (11760407_x_at) / RFU CLDN22 /// WWC2 (11732394_at) / Fold change /veh CLDN22 /// WWC2 (11732394_at) / RFU HLA-DPB1 (11760878_x_at) / Fold change /veh HLA-DPB1 (11760878_x_at) / RFU SPINT1 (11716480_a_at) / Fold change /veh SPINT1 (11716480_a_at) / RFU GAP43 (11754022_s_at) / Fold change /veh GAP43 (11754022_s_at) / RFU A4GNT (11735810_at) / Fold change /veh A4GNT (11735810_at) / RFU PRB3 (11715151_x_at) / Fold change /veh PRB3 (11715151_x_at) / RFU TUBB4B (11761932_at) / Fold change /veh TUBB4B (11761932_at) / RFU CAPN14 (11732068_a_at) / Fold change /veh CAPN14 (11732068_a_at) / RFU TMCC2 (11721928_a_at) / Fold change /veh TMCC2 (11721928_a_at) / RFU IRGQ (11745062_a_at) / Fold change /veh IRGQ (11745062_a_at) / RFU FAM174B (11720279_a_at) / Fold change /veh FAM174B (11720279_a_at) / RFU TMPRSS4 (11748680_a_at) / Fold change /veh TMPRSS4 (11748680_a_at) / RFU FAM212B (11763350_a_at) / Fold change /veh FAM212B (11763350_a_at) / RFU PLEKHG5 (11743358_a_at) / Fold change /veh PLEKHG5 (11743358_a_at) / RFU ZSCAN30 (11745921_a_at) / Fold change /veh ZSCAN30 (11745921_a_at) / RFU CMKLR1 (11741424_a_at) / Fold change /veh CMKLR1 (11741424_a_at) / RFU LOC101060620 /// MAPK8IP1 (11723275_at) / Fold change /veh LOC101060620 /// MAPK8IP1 (11723275_at) / RFU SPTSSB (11747773_x_at) / Fold change /veh SPTSSB (11747773_x_at) / RFU PRSS12 (11739890_at) / Fold change /veh PRSS12 (11739890_at) / RFU BIN1 (11741810_x_at) / Fold change /veh BIN1 (11741810_x_at) / RFU WNT11 (11732464_a_at) / Fold change /veh WNT11 (11732464_a_at) / RFU C10orf10 (11716521_a_at) / Fold change /veh C10orf10 (11716521_a_at) / RFU C5orf56 (11738089_at) / Fold change /veh C5orf56 (11738089_at) / RFU CYB561 (11721691_x_at) / Fold change /veh CYB561 (11721691_x_at) / RFU ANKRD19P (11752326_a_at) / Fold change /veh ANKRD19P (11752326_a_at) / RFU OR2T12 /// OR2T33 /// OR2T8 (11738714_s_at) / Fold change /veh OR2T12 /// OR2T33 /// OR2T8 (11738714_s_at) / RFU VCAN (11748164_a_at) / Fold change /veh VCAN (11748164_a_at) / RFU JSRP1 (11732532_at) / Fold change /veh JSRP1 (11732532_at) / RFU KRTAP10-11 (11738290_x_at) / Fold change /veh KRTAP10-11 (11738290_x_at) / RFU MYO3A (11730013_a_at) / Fold change /veh MYO3A (11730013_a_at) / RFU EBF3 (11725865_a_at) / Fold change /veh EBF3 (11725865_a_at) / RFU CAMK2N1 (11719241_x_at) / Fold change /veh CAMK2N1 (11719241_x_at) / RFU C5orf56 (11738088_a_at) / Fold change /veh C5orf56 (11738088_a_at) / RFU OLFML3 (11715873_a_at) / Fold change /veh OLFML3 (11715873_a_at) / RFU LOC100653217 /// NTM (11731650_a_at) / Fold change /veh LOC100653217 /// NTM (11731650_a_at) / RFU MAPK11 (11762145_a_at) / Fold change /veh MAPK11 (11762145_a_at) / RFU FIZ1 (11724087_x_at) / Fold change /veh FIZ1 (11724087_x_at) / RFU OASL (11726364_x_at) / Fold change /veh OASL (11726364_x_at) / RFU SOX15 (11748057_x_at) / Fold change /veh SOX15 (11748057_x_at) / RFU CD79A (11719716_a_at) / Fold change /veh CD79A (11719716_a_at) / RFU HIST1H1D (11736915_at) / Fold change /veh HIST1H1D (11736915_at) / RFU CASKIN2 (11723855_a_at) / Fold change /veh CASKIN2 (11723855_a_at) / RFU LOC730098 (11760151_x_at) / Fold change /veh LOC730098 (11760151_x_at) / RFU OR4N2 (11742367_at) / Fold change /veh OR4N2 (11742367_at) / RFU PRRT2 (11749266_a_at) / Fold change /veh PRRT2 (11749266_a_at) / RFU SNX32 (11753110_a_at) / Fold change /veh SNX32 (11753110_a_at) / RFU CDHR5 (11726645_a_at) / Fold change /veh CDHR5 (11726645_a_at) / RFU RCAN1 (11760418_a_at) / Fold change /veh RCAN1 (11760418_a_at) / RFU FAM167A (11723789_a_at) / Fold change /veh FAM167A (11723789_a_at) / RFU FAM26E (11764081_at) / Fold change /veh FAM26E (11764081_at) / RFU ISYNA1 (11749810_s_at) / Fold change /veh ISYNA1 (11749810_s_at) / RFU ACY1 (11761880_at) / Fold change /veh ACY1 (11761880_at) / RFU 11764098_at / Fold change /veh 11764098_at / RFU SAMD14 (11745864_x_at) / Fold change /veh SAMD14 (11745864_x_at) / RFU NPB (11741838_a_at) / Fold change /veh NPB (11741838_a_at) / RFU TMPRSS6 (11731388_a_at) / Fold change /veh TMPRSS6 (11731388_a_at) / RFU KRTAP10-2 (11738614_at) / Fold change /veh KRTAP10-2 (11738614_at) / RFU ARHGAP8 /// PRR5-ARHGAP8 (11727945_x_at) / Fold change /veh ARHGAP8 /// PRR5-ARHGAP8 (11727945_x_at) / RFU KRTAP5-7 /// NADSYN1 (11734609_at) / Fold change /veh KRTAP5-7 /// NADSYN1 (11734609_at) / RFU RASL12 (11751679_a_at) / Fold change /veh RASL12 (11751679_a_at) / RFU CDKN2B (11736163_a_at) / Fold change /veh CDKN2B (11736163_a_at) / RFU PRF1 (11729649_at) / Fold change /veh PRF1 (11729649_at) / RFU, ZNF638 /// ZNF638-IT1 / Fold change vs veh, ZNF638 /// ZNF638-IT1 / RFU, PANK3 / Fold change vs veh, PANK3 / RFU, SH3YL1 / Fold change vs veh, SH3YL1 / RFU, ZEB2 / Fold change vs veh, ZEB2 / RFU, NRIP1 / Fold change vs veh, NRIP1 / RFU, PTTG1IP / Fold change vs veh, PTTG1IP / RFU, CAPN2 / Fold change vs veh, CAPN2 / RFU, MED14 / Fold change vs veh, MED14 / RFU, SNORA58 / Fold change vs veh, SNORA58 / RFU, C1orf63 / Fold change vs veh, C1orf63 / RFU, LRRFIP1 / Fold change vs veh, LRRFIP1 / RFU, NDUFAF7 / Fold change vs veh, NDUFAF7 / RFU, SLC12A2 / Fold change vs veh, SLC12A2 / RFU, IBTK / Fold change vs veh, IBTK / RFU, ESF1 / Fold change vs veh, ESF1 / Fold change vs veh, TMEM50B / RFU, TAOK1 / Fold change vs veh, TAOK1 / RFU, ACBD3 / Fold change vs veh, ACBD3 / RFU, TMA16 / Fold change vs veh, TMA16 / RFU, RWDD3 / Fold change vs veh, RWDD3 / RFU, BCAT1 / Fold change vs veh, BCAT1 / RFU, EDEM3 / Fold change vs veh, EDEM3 / RFU, TMEM33 / Fold change vs veh, TMEM33 / RFU, WDR75 / Fold change vs veh, WDR75 / RFU, AHCTF1 / Fold change vs veh, AHCTF1 / RFU, TFRC / Fold change vs veh, TFRC / RFU, ZDHHC17 / Fold change vs veh, ZDHHC17 / RFU, NOM1 / Fold change vs veh, NOM1 / RFU, ARL8B / Fold change vs veh, ARL8B / RFU, ZBTB11 / Fold change vs veh, ZBTB11 / RFU, TAMM41 / Fold change vs veh, TAMM41 / RFU, KIAA1704 /// LOC100996395 / Fold change vs veh, KIAA1704 /// LOC100996395 / RFU, ING1 / Fold change vs veh, ING1 / RFU, TRMT61B / Fold change vs veh, TRMT61B / RFU, FUBP3 / Fold change vs veh, FUBP3 / RFU, TP53 / Fold change vs veh, TP53 / RFU, TNKS2 / Fold change vs veh, TNKS2 / RFU, ZFP14 / Fold change vs veh, ZFP14 / RFU, ACTR2 / Fold change vs veh, ACTR2 / RFU, PPP3R1 / Fold change vs veh, PPP3R1 / RFU, PIK3R1 / Fold change vs veh, PIK3R1 / RFU, HNRNPA1 / Fold change vs veh, HNRNPA1 / RFU, RNF170 / Fold change vs veh, RNF170 / RFU, ZNF28 / Fold change vs veh, ZNF28 / RFU, RNGTT / Fold change vs veh, RNGTT / RFU, OGT / Fold change vs veh, OGT / RFU, BRD1 / Fold change vs veh, BRD1 / RFU, MARS / Fold change vs veh, MARS / RFU, ZNF655 / Fold change vs veh, ZNF655 / RFU, FAHD1 / Fold change vs veh, FAHD1 / RFU, BDP1 / Fold change vs veh, BDP1 / RFU, LRRCC1 / Fold change vs veh, LRRCC1 / RFU, ARID1A / Fold change vs veh, ARID1A / RFU, ZNF146 / Fold change vs veh, ZNF146 / RFU, ZNF330 / Fold change vs veh, ZNF330 / RFU, GPN3 / Fold change vs veh, GPN3 / RFU, C9orf123 / Fold change vs veh, C9orf123 / RFU, N4BP2L2 / Fold change vs veh, N4BP2L2 / RFU, ARFIP1 / Fold change vs veh, ARFIP1 / RFU, FAM179B / Fold change vs veh, FAM179B / RFU, BCL10 / Fold change vs veh, BCL10 / RFU, UHRF1BP1L / Fold change vs veh, UHRF1BP1L / RFU, BET1 / Fold change vs veh, BET1 / RFU, CNOT2 / Fold change vs veh, CNOT2 / RFU, ZNF268 / Fold change vs veh, ZNF268 / Fold change vs veh, ZNF507 / RFU, DGCR2 / Fold change vs veh, DGCR2 / RFU, WDSUB1 / Fold change vs veh, WDSUB1 / Fold change vs veh, HSP90B1 /// MIR3652 / RFU, ADSS / Fold change vs veh, ADSS / RFU, GK / Fold change vs veh, GK / RFU, ZNF148 / Fold change vs veh, ZNF148 / RFU, TAF9 / Fold change vs veh, TAF9 / RFU, SLC1A5 / Fold change vs veh, SLC1A5 / RFU, SLMO2 / Fold change vs veh, SLMO2 / RFU, ABCC4 / Fold change vs veh, ABCC4 / RFU, LOC101060439 /// RAP1B / Fold change vs veh, LOC101060439 /// RAP1B / RFU, RFX7 / Fold change vs veh, RFX7 / RFU, GTPBP10 / Fold change vs veh, GTPBP10 / RFU, CNEP1R1 / Fold change vs veh, CNEP1R1 / RFU, BIVM-ERCC5 /// ERCC5 / Fold change vs veh, BIVM-ERCC5 /// ERCC5 / RFU, ILF3 / Fold change vs veh, ILF3 / RFU 11762660_at / Fold change /veh 11762660_at / RFU VCAN (11757783_s_at) / Fold change /veh VCAN (11757783_s_at) / RFU DDX43 (11728927_at) / Fold change /veh DDX43 (11728927_at) / RFU KRT8 (11758188_x_at) / Fold change /veh KRT8 (11758188_x_at) / RFU NKD1 (11759106_at) / Fold change /veh NKD1 (11759106_at) / RFU SRD5A1 (11742802_a_at) / Fold change /veh SRD5A1 (11742802_a_at) / RFU TPSAB1 /// TPSB2 (11721975_s_at) / Fold change /veh TPSAB1 /// TPSB2 (11721975_s_at) / RFU GSTM3 (11746129_a_at) / Fold change /veh GSTM3 (11746129_a_at) / RFU IL23R (11737362_x_at) / Fold change /veh IL23R (11737362_x_at) / RFU TMEM51 (11727254_a_at) / Fold change /veh TMEM51 (11727254_a_at) / RFU PIWIL2 (11732686_x_at) / Fold change /veh PIWIL2 (11732686_x_at) / RFU ORM1 (11744905_x_at) / Fold change /veh ORM1 (11744905_x_at) / RFU CCDC152 (11743942_at) / Fold change /veh CCDC152 (11743942_at) / RFU ECM1 (11717891_a_at) / Fold change /veh ECM1 (11717891_a_at) / RFU IL23R (11748794_a_at) / Fold change /veh IL23R (11748794_a_at) / RFU TNFAIP8L3 (11732012_x_at) / Fold change /veh TNFAIP8L3 (11732012_x_at) / RFU MBOAT4 (11741988_at) / Fold change /veh MBOAT4 (11741988_at) / RFU 11764193_at / Fold change /veh 11764193_at / RFU TMEM53 (11763286_at) / Fold change /veh TMEM53 (11763286_at) / RFU MAGEB2 (11727129_at) / Fold change /veh MAGEB2 (11727129_at) / RFU TMEM200A (11744735_a_at) / Fold change /veh TMEM200A (11744735_a_at) / RFU CCDC152 (11751479_a_at) / Fold change /veh CCDC152 (11751479_a_at) / RFU FAM211A (11726209_a_at) / Fold change /veh FAM211A (11726209_a_at) / RFU RGS16 (11746705_a_at) / Fold change /veh RGS16 (11746705_a_at) / RFU VCAN (11755009_s_at) / Fold change /veh VCAN (11755009_s_at) / RFU RHOB (11743442_s_at) / Fold change /veh RHOB (11743442_s_at) / RFU RGS16 (11720943_a_at) / Fold change /veh RGS16 (11720943_a_at) / RFU RGS16 (11720944_at) / Fold change /veh RGS16 (11720944_at) / RFU, VPS4B / Fold change vs veh, VPS4B / RFU, CREB1 / Fold change vs veh, CREB1 / RFU, DNAJC13 / Fold change vs veh, DNAJC13 / RFU, GNAQ / Fold change vs veh, GNAQ / RFU, CDK5R1 / Fold change vs veh, CDK5R1 / RFU, ZRANB3 / Fold change vs veh, ZRANB3 / RFU, CUL4A / Fold change vs veh, CUL4A / RFU, CCNY / Fold change vs veh, CCNY / RFU, UFL1 / Fold change vs veh, UFL1 / RFU, COG3 / Fold change vs veh, COG3 / RFU, DIAPH2 / Fold change vs veh, DIAPH2 / RFU, SKA2 / Fold change vs veh, SKA2 / RFU, AFF3 / Fold change vs veh, AFF3 / RFU, LMF1 / Fold change vs veh, LMF1 / RFU, IPO11 / Fold change vs veh, IPO11 / RFU, DFFB / Fold change vs veh, DFFB / RFU, FOXP1 / Fold change vs veh, FOXP1 / RFU, CARD8 / Fold change vs veh, CARD8 / RFU, STRN3 / Fold change vs veh, STRN3 / RFU, ADK / Fold change vs veh, ADK / RFU, RASSF2 / Fold change vs veh, RASSF2 / RFU, WIPF1 / Fold change vs veh, WIPF1 / RFU, LARP1B / Fold change vs veh, LARP1B / RFU, RASA1 / Fold change vs veh, RASA1 / RFU, RB1 / Fold change vs veh, RB1 / RFU, PPFIA1 / Fold change vs veh, PPFIA1 / RFU, MAT2A / Fold change vs veh, MAT2A / RFU, CCT5 / Fold change vs veh, CCT5 / RFU, WDR92 / Fold change vs veh, WDR92 / RFU, CUX1 / Fold change vs veh, CUX1 / RFU, TTC7A / Fold change vs veh, TTC7A / RFU, TMEM135 / Fold change vs veh, TMEM135 / RFU, DEPTOR / Fold change vs veh, DEPTOR / RFU, CPM / Fold change vs veh, CPM / RFU, DNAJB6 / Fold change vs veh, DNAJB6 / RFU, CACNA2D3 / Fold change vs veh, CACNA2D3 / RFU, DTX4 / Fold change vs veh, DTX4 / RFU, TFCP2 / Fold change vs veh, TFCP2 / RFU, GMCL1 /// GMCL1P1 / Fold change vs veh, GMCL1 /// GMCL1P1 / RFU, AEBP2 / Fold change vs veh, AEBP2 / RFU, SNHG1 /// SNORD22 /// SNORD25 /// SNORD26 /// SNORD27 /// SNORD28 /// SNORD29 /// SNORD31 / Fold change vs veh, SNHG1 /// SNORD22 /// SNORD25 /// SNORD26 /// SNORD27 /// SNORD28 /// SNORD29 /// SNORD31 / Fold change (Aza/veh), C12orf56 (ProbeSet 11735607_a_at) / Fold change (ACY-1035/veh), C12orf56 (ProbeSet 11735607_a_at) / Fold change (Aza/veh), FGFR1OP (ProbeSet 11751329_s_at) / Fold change (ACY-1035/veh), FGFR1OP (ProbeSet 11751329_s_at) / Fold change (Aza/veh), VPS36 (ProbeSet 11739960_a_at) / Fold change (ACY-1035/veh), VPS36 (ProbeSet 11739960_a_at) / RFU SYPL1 (11715823_x_at) / Fold change /veh SYPL1 (11715823_x_at) / RFU IGFBP7 (11715501_s_at) / Fold change /veh IGFBP7 (11715501_s_at) / RFU REEP3 (11722064_at) / Fold change /veh REEP3 (11722064_at) / RFU IGLL1 (11728026_x_at) / Fold change /veh IGLL1 (11728026_x_at): dose or concentration left out as unconfirmed. The settings on record: ProbeSet 11716331_a_at; LIST D.

As for `Nc1ccc(-c2cccs2)cc1NC(=O)c1ccc2c(c1)cc(C1CC1)n2CCN1CCOCC1` [ACY-1035], the “RFU, DNAJB6” value was 348.58 RFU.
